Test results published in patent US10239849B2 (Merck Sharp & Dohme Corp., priority 2015, dated 2019).

Key:
[1] = molecular target: T1, glutathione-S-transferase (GST) tagged LXRbeta LBD (ligand binding domain) (Homo sapiens, UniProt P55055); assay: LanthaScreen TR-FRET Liver X Receptor Coactivator Assay, LXR beta-LBD; format: biochemical; conditions: for Emax: efficacy in relation to reference dual agonist T1317, read-out: LXR beta activity at max dose (%) (Emax); for EC50: potency (Inflection Point) of co-activator recruitment, TR-FRET, read-out: LXR beta IP
T1 construct: purchased Invitrogen pv4658.pps
T1 sequence (P55055 222-460 limits assumed): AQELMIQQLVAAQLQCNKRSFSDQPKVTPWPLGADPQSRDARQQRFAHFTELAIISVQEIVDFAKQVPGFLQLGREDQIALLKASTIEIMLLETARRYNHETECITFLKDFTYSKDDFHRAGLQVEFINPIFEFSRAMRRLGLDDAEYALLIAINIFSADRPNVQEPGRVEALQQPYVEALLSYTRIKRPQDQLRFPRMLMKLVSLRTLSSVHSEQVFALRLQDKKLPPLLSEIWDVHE
Summary of the method: (§1)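 Test ligands were combined with the receptor LBD, after which terbium-labelled anti-GST antibody and a fluorescein-tagged coactivator peptide were introduced together. Plates sat at room temperature, then time-resolved FRET was measured.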

[2] = molecular target: T2, glutathione-S-transferase (GST) tagged LXRalpha LBD (ligand binding domain) (Homo sapiens, UniProt Q13133); assay: LanthaScreen TR-FRET Liver X Receptor Coactivator Assay, LXR alpha-LBD; format: biochemical; conditions: for Emax: efficacy in relation to reference dual agonist T1317, read-out: LXR alpha activity at max dose (%) (Emax); for EC50: potency (Inflection Point) of co-activator recruitment, TR-FRET, read-out: LXR alpha IP
T2 construct: purchased Invitrogen pv4655
T2 sequence (Q13133 209-447 limits assumed): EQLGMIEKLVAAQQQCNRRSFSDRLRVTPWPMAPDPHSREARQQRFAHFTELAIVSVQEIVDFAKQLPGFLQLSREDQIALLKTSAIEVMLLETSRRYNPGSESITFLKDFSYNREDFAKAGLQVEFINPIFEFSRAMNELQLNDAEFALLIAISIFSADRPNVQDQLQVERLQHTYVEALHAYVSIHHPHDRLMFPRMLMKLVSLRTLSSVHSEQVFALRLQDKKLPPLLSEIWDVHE
Summary of the method: as §1

Compound	Emax [1] [%]	EC50 [1] [nM]	Emax [2] [%]	EC50 [2] [nM]
CN(C)C(=O)c1ccc(-c2cnc(N3CCN(C(=O)OC(C)(C)C)CC3)c(C#N)c2)cc1C1CC1 [Example 9-4, tert-butyl 4-{3-cyano-5-[3-cyclopropyl-4-(dimethylcarbamoyl)phenyl]pyridin-2-yl}piperazine-1-carboxylate]	68	676	39	4630
CN(CCn1ccnc1)C(=O)c1ccc(-c2cnc(N3CCN(C(=O)OC(C)(C)C)CC3)c(C#N)c2)cc1Cl [Example 5-21, tert-butyl 4-[5-(3-chloro-4-{[2-(1H-imidazol-1-yl)ethyl](methyl)carbamoyl}phenyl)-3-cyanopyridin-2-yl]piperazine-1-carboxylate]	81	931	37	9240
CN(C)C(=O)c1ccc(-c2cnc(N3CCN(S(=O)(=O)C4CC4)CC3)c(C#N)c2)cc1Cl [Example 1-2, 2-chloro-4-{5-cyano-6-[4-(cyclopropylsulfonyl)piperazin-1-yl]pyridin-3-yl}-N,N-dimethylbenzamide]	68	543	37	22500
COc1cc(-c2cnc(N3CCN(C(=O)OC(C)(C)C)CC3)c(C#N)c2)ccc1C(=O)N(C)C [Example 8-2, tert-butyl 4-{3-cyano-5-[4-(dimethylcarbamoyl)-3-methoxyphenyl]pyridin-2-yl}piperazine-1-carboxylate]	73	846	28	25800

Stronger by EC50 [1], values ahead:

Emax [1] [%]	EC50 [1] [nM]	Emax [2] [%]	EC50 [2] [nM]	Compound
65	382	34	9700	CN(Cc1cnn(C)c1)C(=O)c1ccc(-c2cnc(N3CCN(C(=O)OC(C)(C)C)CC3)c(C#N)c2)cc1Cl [Example 5-22, tert-butyl 4-[5-(3-chloro-4-{methyl[(1-methyl-1H-pyrazol-4-yl)methyl]carbamoyl}phenyl)-3-cyanopyridin-2-yl]piperazine-1-carboxylate]
71	274	48	14300	CC(C)(C)OC(=O)N1CCN(c2ncc(-c3ccc(C(=O)N4CCCC4)c(Cl)c3)cc2C#N)CC1 [Example 5-9, tert-butyl 4-{5-[3-chloro-4-(pyrrolidin-1-ylcarbonyl)phenyl]-3-cyanopyridin-2-yl}piperazine-1-carboxylate]
65	162	18	733	CN(C)C(=O)c1ccc(-c2cnc(N3CCN(S(=O)(=O)Cc4ccccc4F)CC3)c(C#N)c2)cc1Cl [Example 1-10, 2-chloro-4-(5-cyano-6-{4-[(2-fluorobenzyl)sulfonyl]piperazin-1-yl}pyridin-3-yl)-N,N-dimethylbenzamide]
75	98	44	1310	CN(C)C(=O)c1ccc(-c2ccc(N3CCN(C(=O)c4ccccc4Cl)CC3)c(Cl)c2)cc1Cl [Example 4-4, 3,3′-dichloro-4′-{4-[(2-chlorophenyl)carbonyl]piperazin-1-yl}-N,N-dimethylbiphenyl-4-carboxamide]
77	27	27	60200	CN(C)C(=O)c1ccc(-c2cnc(N3CCN(C(=O)[C@](C)(O)c4ccccc4)CC3)c(C#N)c2)cc1Cl [Example 2-19, 2-chloro-4-(5-cyano-6-{4-[(2R)-2-hydroxy-2-phenylpropanoyl]piperazin-1-yl}pyridin-3-yl)-N,N-dimethylbenzamide]
124	7	55	690	CN(C)C(=O)c1ccc(-c2cnc(N3CCN(S(=O)(=O)c4c(Cl)cccc4Cl)CC3)c(C#N)c2)cc1Cl [Example 1-1, 2-chloro-4-(5-cyano-6-{4-[(2,6-dichlorophenyl)sulfonyl]piperazin-1-yl}pyridin-3-yl)-N,N-dimethylbenzamide]
